Results published in US8952024B2, “Herbicidal pyrimidone derivatives” (E I du Pont de Nemours and Company, priority 2009, dated 2015).

How the values were obtained:
Type in all cases: in vivo
corn (Zea mays) = experiment: Test A pre-/postemergence plant response
Outline: (§1)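 Seeds planted in loam soil/sand blend; test chemicals in non-phytotoxic solvent mixture with surfactant applied as directed soil spray preemergence and, concurrently, postemergence to plants 2–10 cm tall at one- to two-leaf stage. Greenhouse ~10 days; visual injury vs untreated controls, 0 (no effect) to 100 (complete control).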

[1] = tested on: barnyardgrass (Echinochloa crus-galli); experiment: Test A pre-/postemergence plant response
Outline: as §1

[2] = tested on: velvetleaf (Abutilon theophrasti); experiment: Test A pre-/postemergence plant response
Outline: as §1

[3] = tested on: morningglory (Ipomoea spp.); experiment: Test A pre-/postemergence plant response
Outline: as §1

[4] = tested on: wheat (Triticum aestivum); experiment: Test A pre-/postemergence plant response
Outline: as §1

[5] = tested on: large crabgrass (Digitaria sanguinalis); experiment: Test A pre-/postemergence plant response
Outline: as §1

[6] = tested on: pigweed (Amaranthus retroflexus); experiment: Test A pre-/postemergence plant response
Outline: as §1

[7] = tested on: giant foxtail (Setaria faberii); experiment: Test A pre-/postemergence plant response
Outline: as §1

rice (Oryza sativa) = experiment: Test B flooded paddy test; conditions: for Plant response rating, Flood, Rice: 250 g ai/ha, flooded paddy test, visual rating on 0 to 100 scale (0 no effect, 100 complete control) after 13 to 15 days; for Plant response rating, Rice: Flood (flooded paddy test), 13 to 15 days
Outline: (§2)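 Flooded-pot test: water raised to 3 cm above soil when treating, compound put in the water, level unchanged thereafter. Plants were at 2 leaves. Readout after 13 to 15 days, visual, relative to controls; 0 signifies no effect and 100 complete control.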

[8] = tested on: ducksalad (Heteranthera limosa); experiment: Test B flooded paddy test; conditions: for Plant response rating, Flood, Ducksalad: 250 g ai/ha, flooded paddy test, visual rating on 0 to 100 scale (0 no effect, 100 complete control) after 13 to 15 days; for Plant response rating, Ducksalad: Flood (flooded paddy test), 13 to 15 days
Outline: as §2

[9] = tested on: barnyardgrass (Echinochloa crus-galli); experiment: Test B flooded paddy test; conditions: for Plant response rating, Flood, Barnyardgrass: 250 g ai/ha, flooded paddy test, visual rating on 0 to 100 scale (0 no effect, 100 complete control) after 13 to 15 days; for Plant response rating, Barnyardgrass: Flood (flooded paddy test), 13 to 15 days
Outline: as §2

[10] = tested on: umbrella sedge (Cyperus difformis); experiment: Test B flooded paddy test; conditions: for Plant response rating, Flood, Sedge, Umbrella: 250 g ai/ha, flooded paddy test, visual rating on 0 to 100 scale (0 no effect, 100 complete control) after 13 to 15 days; for Plant response rating, Sedge, Umbrella: Flood (flooded paddy test), 13 to 15 days
Outline: as §2

[11] = Postemergence, 125 g ai/ha, 0 to 100 scale where 0 is no effect and 100 is complete control
[12] = Postemergence, 500 g ai/ha, 0 to 100 scale, 0 = no effect, 100 = complete control, approx. ten days
[13] = Preemergence, 125 g ai/ha, 0 to 100 scale, 0 = no effect, 100 = complete control
[14] = Preemergence, 500 g ai/ha, visual injury, 0 to 100 scale (0 no effect, 100 complete control), approx. ten days
[15] = 62 g ai/ha, scale of 0 to 100 where 0 is no effect and 100 is complete control
[16] = Preemergence, 500 g ai/ha, 0 to 100 scale, 0 = no effect, 100 = complete control
[17] = 125 g ai/ha, scale 0 to 100, 0 is no effect, 100 is complete control
[18] = Flood, 31 g ai/ha, scale 0 to 100 (0 no effect, 100 complete control)

## O=C1CCCC(O)=C1C(=O)c1cnc(-c2ccccc2)n(C2CCCC2)c1=O [Compound 131]
Corn (Zea mays); [11]
  Plant response rating, Corn: 0
Corn (Zea mays); [12]
  Plant response rating, Corn: 30
Corn (Zea mays); [13]
  Plant response rating, Corn: 0
Corn (Zea mays); [14]
  Plant response rating, Corn: 0
[1]; [11]
  Plant response rating, Barnyardgrass: 90
[1]; [12]
  Plant response rating, Barnyardgrass: 90
[1]; [13]
  Plant response rating, Barnyardgrass: 50
[1]; [14]
  Plant response rating, Barnyardgrass: 100
[2]; [11]
  Plant response rating, Velvetleaf: 100
[2]; [12]
  Plant response rating, Velvetleaf: 100
[2]; [13]
  Plant response rating, Velvetleaf: 80
[2]; [14]
  Plant response rating, Velvetleaf: 100
[3]; [11]
  Plant response rating, Morningglory: 100
[3]; [12]
  Plant response rating, Morningglory: 100
[3]; [14]
  Plant response rating, Morningglory: 80
[4]; [11]
  Plant response rating, Wheat: 0
[4]; [12]
  Plant response rating, Wheat: 0
[4]; [13]
  Plant response rating, Wheat: 0
[4]; [14]
  Plant response rating, Wheat: 0
[5]; [11]
  Plant response rating, Crabgrass, Large: 90
[5]; [12]
  Plant response rating, Crabgrass, Large: 90
[5]; [13]
  Plant response rating, Crabgrass, Large: 80
[5]; [14]
  Plant response rating, Crabgrass, Large: 100
[6]; [11]
  Plant response rating, Pigweed: 100
[6]; [12]
  Plant response rating, Pigweed: 100
[6]; [13]
  Plant response rating, Pigweed: 100
[6]; [14]
  Plant response rating, Pigweed: 100
[7]; [11]
  Plant response rating, Foxtail, Giant: 80
[7]; [12]
  Plant response rating, Foxtail, Giant: 90
[7]; [13]
  Plant response rating, Foxtail, Giant: 60
[7]; [14]
  Plant response rating, Foxtail, Giant: 80
Rice (Oryza sativa)
  Plant response rating, Flood, Rice: 55
Rice (Oryza sativa); [15]
  Plant response rating, Rice: 25
[8]
  Plant response rating, Flood, Ducksalad: 85
[8]; [15]
  Plant response rating, Ducksalad: 40
[9]
  Plant response rating, Flood, Barnyardgrass: 50
[9]; [15]
  Plant response rating, Barnyardgrass: 20
[10]
  Plant response rating, Flood, Sedge, Umbrella: 85
[10]; [15]
  Plant response rating, Sedge, Umbrella: 20

## COCCCn1c(-c2cccc(Br)c2)ncc(C(=O)C2=C(O)CCCC2=O)c1=O [Compound 140]
Corn (Zea mays); [11]
  Plant response rating, Corn: 0
Corn (Zea mays); [12]
  Plant response rating, Corn: 20
Corn (Zea mays); [13]
  Plant response rating, Corn: 0
Corn (Zea mays); [14]
  Plant response rating, Corn: 0
[1]; [11]
  Plant response rating, Barnyardgrass: 90
[1]; [12]
  Plant response rating, Barnyardgrass: 90
[1]; [13]
  Plant response rating, Barnyardgrass: 60
[1]; [14]
  Plant response rating, Barnyardgrass: 100
[2]; [11]
  Plant response rating, Velvetleaf: 100
[2]; [12]
  Plant response rating, Velvetleaf: 100
[2]; [13]
  Plant response rating, Velvetleaf: 80
[2]; [14]
  Plant response rating, Velvetleaf: 100
[3]; [11]
  Plant response rating, Morningglory: 100
[3]; [12]
  Plant response rating, Morningglory: 100
[3]; [13]
  Plant response rating, Morningglory: 30
[3]; [14]
  Plant response rating, Morningglory: 50
[4]; [11]
  Plant response rating, Wheat: 0
[4]; [12]
  Plant response rating, Wheat: 0
[4]; [13]
  Plant response rating, Wheat: 0
[4]; [14]
  Plant response rating, Wheat: 0
[5]; [11]
  Plant response rating, Crabgrass, Large: 90
[5]; [12]
  Plant response rating, Crabgrass, Large: 90
[5]; [13]
  Plant response rating, Crabgrass, Large: 70
[5]; [14]
  Plant response rating, Crabgrass, Large: 90
[6]; [11]
  Plant response rating, Pigweed: 90
[6]; [12]
  Plant response rating, Pigweed: 100
[6]; [13]
  Plant response rating, Pigweed: 80
[6]; [14]
  Plant response rating, Pigweed: 100
[7]; [11]
  Plant response rating, Foxtail, Giant: 80
[7]; [12]
  Plant response rating, Foxtail, Giant: 90
[7]; [13]
  Plant response rating, Foxtail, Giant: 40
[7]; [14]
  Plant response rating, Foxtail, Giant: 90
Rice (Oryza sativa)
  Plant response rating, Flood, Rice: 40
Rice (Oryza sativa); [15]
  Plant response rating, Rice: 0
[8]
  Plant response rating, Flood, Ducksalad: 85
[8]; [15]
  Plant response rating, Ducksalad: 50
[9]
  Plant response rating, Flood, Barnyardgrass: 45
[9]; [15]
  Plant response rating, Barnyardgrass: 20
[10]
  Plant response rating, Flood, Sedge, Umbrella: 85
[10]; [15]
  Plant response rating, Sedge, Umbrella: 75

## CCCn1c(-c2cccc(Br)c2)ncc(C(=O)C2=C(O)CCCC2=O)c1=O [Compound 141]
Corn (Zea mays); [11]
  Plant response rating, Corn: 20
Corn (Zea mays); [12]
  Plant response rating, Corn: 30
Corn (Zea mays); [13]
  Plant response rating, Corn: 0
Corn (Zea mays); [14]
  Plant response rating, Corn: 0
[1]; [11]
  Plant response rating, Barnyardgrass: 90
[1]; [12]
  Plant response rating, Barnyardgrass: 90
[1]; [13]
  Plant response rating, Barnyardgrass: 60
[1]; [14]
  Plant response rating, Barnyardgrass: 100
[2]; [11]
  Plant response rating, Velvetleaf: 100
[2]; [12]
  Plant response rating, Velvetleaf: 100
[2]; [13]
  Plant response rating, Velvetleaf: 70
[2]; [14]
  Plant response rating, Velvetleaf: 100
[3]; [11]
  Plant response rating, Morningglory: 70
[3]; [12]
  Plant response rating, Morningglory: 100
[3]; [13]
  Plant response rating, Morningglory: 0
[3]; [14]
  Plant response rating, Morningglory: 30
[4]; [11]
  Plant response rating, Wheat: 0
[4]; [12]
  Plant response rating, Wheat: 0
[4]; [13]
  Plant response rating, Wheat: 0
[4]; [14]
  Plant response rating, Wheat: 0
[5]; [11]
  Plant response rating, Crabgrass, Large: 80
[5]; [12]
  Plant response rating, Crabgrass, Large: 90
[5]; [13]
  Plant response rating, Crabgrass, Large: 80
[5]; [14]
  Plant response rating, Crabgrass, Large: 100
[6]; [11]
  Plant response rating, Pigweed: 90
[6]; [12]
  Plant response rating, Pigweed: 100
[6]; [13]
  Plant response rating, Pigweed: 70
[6]; [14]
  Plant response rating, Pigweed: 100
[7]; [11]
  Plant response rating, Foxtail, Giant: 80
[7]; [12]
  Plant response rating, Foxtail, Giant: 90
[7]; [13]
  Plant response rating, Foxtail, Giant: 40
[7]; [14]
  Plant response rating, Foxtail, Giant: 80
Rice (Oryza sativa)
  Plant response rating, Flood, Rice: 35
Rice (Oryza sativa); [15]
  Plant response rating, Rice: 0
[8]
  Plant response rating, Flood, Ducksalad: 85
[8]; [15]
  Plant response rating, Ducksalad: 75
[9]
  Plant response rating, Flood, Barnyardgrass: 50
[9]; [15]
  Plant response rating, Barnyardgrass: 20
[10]
  Plant response rating, Flood, Sedge, Umbrella: 85
[10]; [15]
  Plant response rating, Sedge, Umbrella: 80

## CCCCn1c(-c2cccc(Cl)c2)ncc(C(=O)C2=C(O)CCCC2=O)c1=O [Compound 146]
Corn (Zea mays); [11]
  Plant response rating, Corn: 20
Corn (Zea mays); [12]
  Plant response rating, Corn: 30
Corn (Zea mays); [13]
  Plant response rating, Corn: 0
Corn (Zea mays); [14]
  Plant response rating, Corn: 30
[1]; [11]
  Plant response rating, Barnyardgrass: 100
[1]; [12]
  Plant response rating, Barnyardgrass: 100
[1]; [13]
  Plant response rating, Barnyardgrass: 60
[1]; [14]
  Plant response rating, Barnyardgrass: 100
[2]; [11]
  Plant response rating, Velvetleaf: 100
[2]; [12]
  Plant response rating, Velvetleaf: 100
[2]; [13]
  Plant response rating, Velvetleaf: 70
[2]; [16]
  Plant response rating, Velvetleaf: 100
[3]; [11]
  Plant response rating, Morningglory: 90
[3]; [12]
  Plant response rating, Morningglory: 90
[3]; [13]
  Plant response rating, Morningglory: 10
[4]; [11]
  Plant response rating, Wheat: 20
[4]; [12]
  Plant response rating, Wheat: 50
[4]; [13]
  Plant response rating, Wheat: 0
[4]; [16]
  Plant response rating, Wheat: 40
[5]; [11]
  Plant response rating, Crabgrass, Large: 80
[5]; [12]
  Plant response rating, Crabgrass, Large: 90
[5]; [13]
  Plant response rating, Crabgrass, Large: 60
[5]; [14]
  Plant response rating, Crabgrass, Large: 100
[6]; [11]
  Plant response rating, Pigweed: 100
[6]; [12]
  Plant response rating, Pigweed: 100
[6]; [13]
  Plant response rating, Pigweed: 70
[6]; [14]
  Plant response rating, Pigweed: 100
[7]; [11]
  Plant response rating, Foxtail, Giant: 70
[7]; [12]
  Plant response rating, Foxtail, Giant: 90
[7]; [13]
  Plant response rating, Foxtail, Giant: 30
[7]; [14]
  Plant response rating, Foxtail, Giant: 90
Rice (Oryza sativa)
  Plant response rating, Flood, Rice: 35
Rice (Oryza sativa); [15]
  Plant response rating, Rice: 0
Rice (Oryza sativa); [17]
  Plant response rating, Rice: 0
Rice (Oryza sativa); [18]
  Rice plant response rating: 0
[8]
  Plant response rating, Flood, Ducksalad: 100
[8]; [15]
  Plant response rating, Ducksalad: 60
[8]; [17]
  Plant response rating, Ducksalad: 80
[8]; [18]
  Ducksalad plant response rating: 0
[9]
  Plant response rating, Flood, Barnyardgrass: 30
[9]; [15]
  Plant response rating, Barnyardgrass: 0
[9]; [17]
  Plant response rating, Barnyardgrass: 0
[9]; [18]
  Barnyardgrass plant response rating: 0
[10]
  Plant response rating, Flood, Sedge, Umbrella: 90
[10]; [15]
  Plant response rating, Sedge, Umbrella: 50
[10]; [17]
  Plant response rating, Sedge, Umbrella: 80
[10]; [18]
  Sedge, Umbrella plant response rating: 0
